Source: publication PMC12766724, “Synthesis, Anthelmintic Activity, and Mechanism of Action of 5‑Aryl‑1H‑indoles” (Journal of Agricultural and Food Chemistry, 2025)
Read-outs that look alike come from different tables or passages of the source.

Columns and labels:
[1] = test system: C. elegans wild-type N2; assay: Microscopic scoring (score 1-5) of worm populations prior to the Chitinase assay, L1 exposed 4 days; type: in vivo, Caenorhabditis elegans; settings: 50 μM; score 1 (dead/arrested L1) to 5 (healthy)
Text: Dead or mostly immobile worms, arrested at the L1 stage, received a score of 1. Populations with severely delayed development were scored as 2. More developmentally advanced, but still obviously delayed worms were given the score of 3. Adult worms that produce a noticeably lower number of progeny received a score of 4. Healthy worms that reproduce normally (i.e., hundreds of eggs and larvae are present) were scored as 5 (see Figure C for representative images). In a typical, correctly prepared experiment, vehicle-treated populations should receive a score of 5, while worms treated with ivermectin (positive control) should receive a score of 1.
(§1) After exposing L1 larvae to the compounds for 4 days, we observed the populations under a microscope and measured the Chitinase activity. The larvae produce the enzyme while hatching, and its activity is indicative of the reproductive capacity of the worms. Populations that fail to reproduce due to acute or reproductive toxicity or developmental abnormalities are detected.

[2] = test system: C. elegans N2 wild-type; assay: Chitinase assay (reproductive capacity); type: in vivo, Caenorhabditis elegans
Description: (§2) The effect of compounds on C. elegans was evaluated using the Chitinase assay as we described previously.
as §1

[3] = test system: C. elegans CB211 lev-1(e211) IV.; assay: Chitinase assay (reproductive capacity); type: in vivo; settings: Caenorhabditis elegans; levamisole-resistant strain
Description: (§3) C. elegans strains used in this study were N2 (wild-type), levamisole-resistant strains ZZ15 (lev-8(x15) X) and […] (lev-1(e211) IV), ivermectin-resistant strain DA1316 (avr-14(ad1305) I; avr-15(vu227) glc-1(pk54) V), mebendazole-resistant strain […] (ben-1(e1880) III), and three strains with mutations in succinate dehydrogenase, RP2699, RP2700, and RP2702. The worms were cultivated on Nematode Growth Medium agar plates seeded with Escherichia coli OP50 in 20 °C according to the standard cultivation protocols. Strains RP2699, RP2700, and RP2702 were generated by Prof. Peter Roy’s group. All other strains and bacteria were purchased from the Caenorhabditis Genetics Center (CGC, Minneapolis, MN).
as §2
(§4) Lastly, strain DA1316 has mutations in three genes encoding subunits of the glutamate-gated chloride channel and is highly resistant to avermectins.

[4] = test system: C. elegans CB3474 ben-1(e1880) III.; assay: Chitinase assay (reproductive capacity); type: in vivo; settings: Caenorhabditis elegans; mebendazole-resistant strain
Description: as §3, §2, §4

[5] = test system: C. elegans DA1316 avr-14(ad1305) I; avr-15(vu227) glc-1(pk54) V.; assay: Chitinase assay (reproductive capacity); type: in vivo; settings: Caenorhabditis elegans; ivermectin-resistant strain
Description: as §3, §2, §4

[6] = test system: C. elegans ZZ15 lev-8(x15) X.; assay: Chitinase assay (reproductive capacity); type: in vivo; settings: Caenorhabditis elegans; levamisole-resistant strain
Description: as §3, §2, §4

[7] = test system: age unsynchronized Ditylenchus destructor; assay: Motility on WMicrotracker ONE; type: in vivo
Description: Populations of D. destructor, kindly provided by Central Institute for Supervising and Testing in Agriculture, the Ministry of Agriculture of the Czech Republic, were maintained according to the protocol previously described here.
(§5) The effect of compounds on motility of H. contortus, D. destructor, and H. schachtii was evaluated using the WMicrotracker ONE platform according to previously published protocols. ,
(§6) The instrument evaluates the activity of small animals by counting how many times infrared light microbeams passing through the wells of a microtiter plate are interrupted. In age-unsynchronized populations of D. destructor, we observed reduced motility of worm populations treated with the halogenated derivatives i-19, i-20, and i-21 (Figures A, S2.1A, S2.2A and Table S2.1). […] The decreases in mean activity counts after 72 h of treatment at 100 μM were 85% and 97%, respectively.

[8] = test system: Heterodera schachtii second-stage juveniles (J2); assay: Motility on WMicrotracker ONE; type: in vivo
Description: H. schachtii was maintained on mustard (Sinapsis alba cv. Albatros) roots grown in vitro on modified KNOP medium according to the previously published protocols. ,
as §5, §6

[9] = test system: Arabidopsis thaliana Col-0; assay: Germination rate and phytotoxicity; type: in vivo; settings: for average fraction of germinated seeds: 5 DPS; for main root length / plant weight: 10 DPS
Description: Wild-type A. thaliana (Col-0 ecotype) seeds were sterilized with 70% EtOH with 0.1% Tween-20 solution (2 × 1 mL) for 10 min, rinsed with 96% EtOH (1 × 1 mL) for 10 min, and kept in the fridge (4 °C in the dark). Seeds were sown on a sterile 1/2 MS medium supplemented with 0.3% DMSO as a mock and test compounds at 5, 10, 50, and 100 μM concentrations in 0.3% DMSO. Plates were kept in long-day light conditions (22 °C/20 °C, 16 h light/8 h dark, 100 μmol m^–2 s^–1). After 5 days, the germination rate was evaluated. After an additional 5 days, primary root growth was measured with ImageJ software (https://imagej.nih.gov/ij/), and seedlings were weighted.

[10] = test system: Skin fibroblasts (BJ); assay: Resazurin assay, 3-day treatment; type: cell-based, human; settings: BJ
Description: Skin fibroblasts (BJ) were obtained from the American Type Culture Collection (ATCC, Manassas, VA), while human keratinocytes (HaCaT) were sourced from the German Cancer Research Center in Heidelberg, Germany. Cells were cultured in a standard DMEM medium from Sigma-Aldrich, supplemented with 10% fetal bovine serum, 2 mM glutamine, 100 U/mL penicillin, and 100 μg/mL streptomycin. Cultures were maintained under standard conditions (37 °C, 5% CO2, humidified atmosphere) and subcultured two to three times per week. We assessed the effect of 3-day compound treatments on cell viability using a resazurin reduction assay measuring mitochondrial activity. Approximately 5,000 cells in 80 μL of culture medium were seeded into the wells of a 96-well plate. Twenty-four hours later, 20 μL of 5-fold concentrated test compound solutions was added and tested across three concentrations prepared through 2-fold serial dilutions. The highest final concentration was 40 μM. After 72 h, we added an 11-fold concentrated resazurin solution to the wells, achieving a final concentration of 0.0125 μM. Fluorescence (ex = 570 nm, em = 610 nm) was measured after 3 h of incubation. […]

[11] = test system: human keratinocytes (HaCaT); assay: Resazurin assay, 3-day treatment; type: cell-based
Description: Skin fibroblasts (BJ) were obtained from the American Type Culture Collection (ATCC, Manassas, VA), while human keratinocytes (HaCaT) were sourced from the German Cancer Research Center in Heidelberg, Germany. Cells were cultured in a standard DMEM medium from Sigma-Aldrich, supplemented with 10% fetal bovine serum, 2 mM glutamine, 100 U/mL penicillin, and 100 μg/mL streptomycin. Cultures were maintained under standard conditions (37 °C, 5% CO2, humidified atmosphere) and subcultured two to three times per week. We assessed the effect of 3-day compound treatments on cell viability using a resazurin reduction assay measuring mitochondrial activity. Approximately 5,000 cells in 80 μL of culture medium were seeded into the wells of a 96-well plate. Twenty-four hours later, 20 μL of 5-fold concentrated test compound solutions was added and tested across three concentrations prepared through 2-fold serial dilutions. The highest final concentration was 40 μM. After 72 h, we added an 11-fold concentrated resazurin solution to the wells, achieving a final concentration of 0.0125 μM. Fluorescence (ex = 570 nm, em = 610 nm) was measured after 3 h of incubation.
The disubstituted derivatives i-25 and i-27 were the most toxic in the set, causing around a 50% decrease in viability of HaCaT cells at 40 μM.

[12] = 10 µM group, initial (prior to the treatment)
[13] = 50 µM group, initial (prior to the treatment)
[14] = 100 µM group, initial (prior to the treatment)

IC50 ([2]; Caenorhabditis elegans) [µM]	IC50 [3] [µM]	IC50 [4] [µM]	IC50 [5] [µM]	IC50 [6] [µM]	SMILES	average score [1]	average activity counts [7, 12]	average activity counts ([7]; 10 µM, 48 h)	average activity counts ([7]; 10 µM, 72 h)	average activity counts [7, 13]	average activity counts ([7]; 50 µM, 48 h)	average activity counts ([7]; 50 µM, 72 h)	average activity counts [7, 14]	average activity counts ([7]; 100 µM, 48 h)	average activity counts ([7]; 100 µM, 72 h)	average activity counts [8, 12]	average activity counts ([8]; 10 µM, 48 h)	average activity counts ([8]; 10 µM, 72 h)	average activity counts [8, 13]	average activity counts ([8]; 50 µM, 48 h)	further results
					CCOc1ccc(-c2ccc3[nH]ccc3c2)cc1 [i-10]	1.8															
< 10	9.65 ± 1.82	10.2 ± 0.5	9.34 ± 2.01	9.71 ± 1.34	CCOc1cccc(-c2ccc3[nH]ccc3c2)c1 [i-9]		199	183	205	200	176	212	228	171	181	167	161	159	201	207	IC50 [2]: 9.76 ± 0.93 µM; average activity counts ([8]; 50 µM, 72 h): 188; average activity counts [8, 14]: 193; average activity counts ([8]; 100 µM, 48 h): 202; average activity counts ([8]; 100 µM, 72 h): 171; average fraction of germinated seeds ([9]; 5 µM): 0.96; main root length ([9]; 5 µM): 40.21 mm; plant weight ([9]; 5 µM): 33.97 mg; average fraction of germinated seeds ([9]; 10 µM): 0.95; main root length ([9]; 10 µM): 41.46 mm; plant weight ([9]; 10 µM): 35.69 mg; average fraction of germinated seeds ([9]; 50 µM): 0.96; main root length ([9]; 50 µM): 35.05 mm; plant weight ([9]; 50 µM): 31.4 mg; Average viability (signal intensity relative to control) ([10]; 10 µM): 0.92 ± 0.03; Average viability (signal intensity relative to control) ([10]; 20 µM): 0.97 ± 0.04; Average viability (signal intensity relative to control) ([10]; 40 µM): 0.94 ± 0.03; Average viability (signal intensity relative to control) ([11]; 10 µM): 0.97 ± 0.04; Average viability (signal intensity relative to control) ([11]; 20 µM): 1.01 ± 0.05; Average viability (signal intensity relative to control) ([11]; 40 µM): 0.99 ± 0.02
					CCCOc1ccccc1-c1ccc2[nH]ccc2c1 [i-11]	1.5															
					CCOc1ccccc1-c1ccc2[nH]ccc2c1 [i-8]	2.5															
9.74 ± 1.65	9.36 ± 0.43	7.79 ± 0.36	9.93 ± 0.68	8.72 ± 0.13	CCOc1cc(-c2ccc3[nH]ccc3c2)ccc1Cl [i-25]		234	221	194	246	209	197	230	210	203	174	160	171	178	184	average activity counts ([8]; 50 µM, 72 h): 170; average activity counts [8, 14]: 172; average activity counts ([8]; 100 µM, 48 h): 195; average activity counts ([8]; 100 µM, 72 h): 190; average fraction of germinated seeds ([9]; 5 µM): 0.98; main root length ([9]; 5 µM): 38.29 mm; plant weight ([9]; 5 µM): 30.25 mg; average fraction of germinated seeds ([9]; 10 µM): 0.95; main root length ([9]; 10 µM): 38.15 mm; plant weight ([9]; 10 µM): 31.97 mg; average fraction of germinated seeds ([9]; 50 µM): 0.96; main root length ([9]; 50 µM): 34.25 mm; plant weight ([9]; 50 µM): 27.79 mg; Average viability (signal intensity relative to control) ([10]; 10 µM): 0.92 ± 0.01; Average viability (signal intensity relative to control) ([10]; 20 µM): 0.9 ± 0.05; Average viability (signal intensity relative to control) ([10]; 40 µM): 0.74 ± 0.06; Average viability (signal intensity relative to control) ([11]; 10 µM): 0.93 ± 0.02; Average viability (signal intensity relative to control) ([11]; 20 µM): 0.88 ± 0.06; Average viability (signal intensity relative to control) ([11]; 40 µM): 0.53 ± 0.1; decrease in viability ([11]; 40 µM): ~50%
